Laboratory results reported in US9682995B2, “Amino-substituted isothiazoles” (BAYER PHARMA AKTIENGESELLSCHAFT, priority 2013, dated 2017).

Columns and labels:
Assay in all cases: Kinase Profiling (KINOMEscan)
Assay type in all cases: binding
[1] = target: 456 kinases (of these 395 non-mutant kinases) (Homo sapiens, UniProt Q86V86); settings: PIM3; 10 μM
[2] = test system: 456 kinases (of these 395 non-mutant kinases); settings: 10 μM
[3] = target: 456 kinases (of these 395 non-mutant kinases) (Homo sapiens, UniProt O00329); settings: PIK3CD; 10 μM
[4] = target: 456 kinases (of these 395 non-mutant kinases) (Homo sapiens, UniProt O75716); settings: STK16; 10 μM
Sequence of 456 kinases (of these 395 non-mutant kinases) (Homo sapiens, UniProt O75716) (O75716 2-305 limits assumed, change not shown): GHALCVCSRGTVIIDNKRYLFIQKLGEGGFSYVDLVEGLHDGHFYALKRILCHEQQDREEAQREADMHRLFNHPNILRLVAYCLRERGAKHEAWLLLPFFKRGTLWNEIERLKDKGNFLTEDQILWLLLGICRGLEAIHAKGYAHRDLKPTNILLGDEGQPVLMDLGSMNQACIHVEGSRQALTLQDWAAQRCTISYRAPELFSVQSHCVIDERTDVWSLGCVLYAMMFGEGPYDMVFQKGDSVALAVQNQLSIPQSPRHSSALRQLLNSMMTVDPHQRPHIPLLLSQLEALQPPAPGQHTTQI

[5] = target: 456 kinases (of these 395 non-mutant kinases) (Homo sapiens, UniProt Q9UEW8); settings: STK39; 10 μM
[6] = target: 456 kinases (of these 395 non-mutant kinases) (Homo sapiens, UniProt P37023); settings: ACVRL1; 10 μM
[7] = target: 456 kinases (of these 395 non-mutant kinases) (Homo sapiens, UniProt P51812); settings: 10 μM
[8] = target: 456 kinases (of these 395 non-mutant kinases) (Homo sapiens, UniProt Q15349); settings: 10 μM
[9] = target: 456 kinases (of these 395 non-mutant kinases) (Homo sapiens, UniProt O15530); settings: PDPK1; 10 μM
[10] = target: 456 kinases (of these 395 non-mutant kinases) (Homo sapiens, UniProt O94768); settings: DRAK2; 10 μM
[11] = target: 456 kinases (of these 395 non-mutant kinases) (Homo sapiens, UniProt P10721, D816V); settings: KIT(D816V); 10 μM
Sequence of 456 kinases (of these 395 non-mutant kinases) (Homo sapiens, UniProt P10721, D816V) (P10721 26-976 D816V limits assumed): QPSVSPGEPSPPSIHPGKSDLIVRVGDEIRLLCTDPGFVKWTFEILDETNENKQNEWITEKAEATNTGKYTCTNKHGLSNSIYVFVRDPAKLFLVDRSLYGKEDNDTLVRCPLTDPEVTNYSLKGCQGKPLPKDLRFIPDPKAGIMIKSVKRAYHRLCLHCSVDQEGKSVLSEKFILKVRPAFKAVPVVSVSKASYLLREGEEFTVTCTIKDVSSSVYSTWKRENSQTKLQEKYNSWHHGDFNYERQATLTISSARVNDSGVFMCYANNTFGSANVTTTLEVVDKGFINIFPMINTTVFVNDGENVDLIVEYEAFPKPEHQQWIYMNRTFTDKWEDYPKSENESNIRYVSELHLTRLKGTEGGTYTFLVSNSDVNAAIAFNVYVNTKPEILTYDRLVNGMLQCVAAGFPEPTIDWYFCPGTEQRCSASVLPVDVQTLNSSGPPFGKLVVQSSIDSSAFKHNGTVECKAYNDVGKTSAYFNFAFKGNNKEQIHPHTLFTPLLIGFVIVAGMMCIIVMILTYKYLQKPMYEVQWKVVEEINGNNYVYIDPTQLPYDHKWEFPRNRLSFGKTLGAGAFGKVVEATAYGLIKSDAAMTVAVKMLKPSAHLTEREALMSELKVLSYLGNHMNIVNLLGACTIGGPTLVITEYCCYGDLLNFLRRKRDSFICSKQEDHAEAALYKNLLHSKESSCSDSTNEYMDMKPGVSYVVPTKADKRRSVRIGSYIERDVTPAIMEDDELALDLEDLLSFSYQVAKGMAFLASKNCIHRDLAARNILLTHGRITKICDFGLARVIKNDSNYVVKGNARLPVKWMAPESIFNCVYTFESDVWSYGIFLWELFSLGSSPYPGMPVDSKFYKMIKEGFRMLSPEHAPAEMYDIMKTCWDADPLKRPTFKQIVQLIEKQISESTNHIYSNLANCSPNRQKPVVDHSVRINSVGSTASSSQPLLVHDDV

[12] = target: 456 kinases (of these 395 non-mutant kinases) (Homo sapiens, UniProt P51956); settings: NEK3; 10 μM
[13] = target: 456 kinases (of these 395 non-mutant kinases) (Homo sapiens, UniProt Q13164); settings: ERK5; 10 μM
[14] = target: 456 kinases (of these 395 non-mutant kinases) (Homo sapiens, UniProt Q13153); settings: PAK1; 10 μM
[15] = target: 456 kinases (of these 395 non-mutant kinases) (Homo sapiens, UniProt Q15835); settings: GRK1; 10 μM
[16] = target: 456 kinases (of these 395 non-mutant kinases) (Homo sapiens, UniProt Q9UIK4); settings: DAPK2; 10 μM
[17] = target: 456 kinases (of these 395 non-mutant kinases) (Homo sapiens, UniProt P10721, V559D/V654A); settings: KIT(V559D,V654A); 10 μM
Sequence of 456 kinases (of these 395 non-mutant kinases) (Homo sapiens, UniProt P10721, V559D/V654A) (P10721 26-976 V559D/V654A limits assumed): as the sequence (P10721 26-976 D816V limits assumed) above, with V534D, V629A, V791D counted along it

[18] = target: 456 kinases (of these 395 non-mutant kinases) (Homo sapiens, UniProt P29597); settings: 10 μM
[19] = target: 456 kinases (of these 395 non-mutant kinases) (Homo sapiens, UniProt P42684); settings: ABL2; 10 μM
Sequence of 456 kinases (of these 395 non-mutant kinases) (Homo sapiens, UniProt P42684) (P42684 2-1182 limits assumed, change not shown): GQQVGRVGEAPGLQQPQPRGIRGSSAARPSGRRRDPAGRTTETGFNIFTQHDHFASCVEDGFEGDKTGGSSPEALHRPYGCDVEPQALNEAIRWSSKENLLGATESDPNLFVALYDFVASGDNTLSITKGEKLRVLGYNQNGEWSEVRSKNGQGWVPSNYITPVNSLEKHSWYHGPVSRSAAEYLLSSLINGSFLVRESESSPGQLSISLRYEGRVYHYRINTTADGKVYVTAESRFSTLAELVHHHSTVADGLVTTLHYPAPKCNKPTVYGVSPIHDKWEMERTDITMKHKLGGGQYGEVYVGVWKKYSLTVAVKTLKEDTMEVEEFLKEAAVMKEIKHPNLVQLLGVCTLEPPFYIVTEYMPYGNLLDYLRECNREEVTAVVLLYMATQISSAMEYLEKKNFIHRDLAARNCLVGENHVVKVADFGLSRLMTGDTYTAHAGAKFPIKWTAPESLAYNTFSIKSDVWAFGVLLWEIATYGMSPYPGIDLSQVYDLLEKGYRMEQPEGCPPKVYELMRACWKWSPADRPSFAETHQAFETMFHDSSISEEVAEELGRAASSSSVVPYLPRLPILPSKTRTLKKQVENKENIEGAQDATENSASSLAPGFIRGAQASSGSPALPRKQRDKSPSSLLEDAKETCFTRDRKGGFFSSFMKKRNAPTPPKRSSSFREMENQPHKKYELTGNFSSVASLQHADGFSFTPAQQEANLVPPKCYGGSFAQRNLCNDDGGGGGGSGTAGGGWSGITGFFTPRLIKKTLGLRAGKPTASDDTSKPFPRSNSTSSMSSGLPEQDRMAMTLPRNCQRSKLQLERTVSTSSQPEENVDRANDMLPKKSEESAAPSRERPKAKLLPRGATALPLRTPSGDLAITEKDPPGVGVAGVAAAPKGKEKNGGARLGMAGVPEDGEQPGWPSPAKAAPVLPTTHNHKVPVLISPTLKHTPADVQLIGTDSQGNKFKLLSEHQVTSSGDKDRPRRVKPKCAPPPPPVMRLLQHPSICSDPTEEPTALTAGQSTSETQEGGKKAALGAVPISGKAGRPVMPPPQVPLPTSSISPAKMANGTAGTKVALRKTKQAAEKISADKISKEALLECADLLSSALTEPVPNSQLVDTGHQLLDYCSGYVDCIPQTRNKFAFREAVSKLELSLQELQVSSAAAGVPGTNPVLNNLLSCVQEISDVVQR

[20] = target: 456 kinases (of these 395 non-mutant kinases) (Homo sapiens, UniProt P53355); settings: DAPK1; 10 μM
[21] = target: 456 kinases (of these 395 non-mutant kinases) (Homo sapiens, UniProt Q96RR4); settings: CAMKK2; 10 μM
Sequence of 456 kinases (of these 395 non-mutant kinases) (Homo sapiens, UniProt Q96RR4) (Q96RR4 2-588 limits assumed, change not shown): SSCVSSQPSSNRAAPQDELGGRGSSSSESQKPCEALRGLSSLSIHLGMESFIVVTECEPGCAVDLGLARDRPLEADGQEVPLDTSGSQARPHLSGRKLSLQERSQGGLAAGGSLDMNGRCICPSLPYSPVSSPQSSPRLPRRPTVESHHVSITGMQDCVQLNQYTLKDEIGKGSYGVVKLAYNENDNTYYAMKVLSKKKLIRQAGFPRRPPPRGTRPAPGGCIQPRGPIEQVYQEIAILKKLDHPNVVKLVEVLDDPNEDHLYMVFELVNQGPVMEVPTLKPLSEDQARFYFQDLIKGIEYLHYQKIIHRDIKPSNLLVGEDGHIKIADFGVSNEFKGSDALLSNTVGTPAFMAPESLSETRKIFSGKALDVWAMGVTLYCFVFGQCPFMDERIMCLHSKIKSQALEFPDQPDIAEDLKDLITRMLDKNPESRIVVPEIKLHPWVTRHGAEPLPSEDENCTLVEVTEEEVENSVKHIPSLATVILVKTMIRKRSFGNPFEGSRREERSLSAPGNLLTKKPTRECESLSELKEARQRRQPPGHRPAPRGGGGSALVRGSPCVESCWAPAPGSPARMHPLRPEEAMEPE

[22] = target: 456 kinases (of these 395 non-mutant kinases) (Homo sapiens, UniProt P29320); settings: EPHA3; 10 μM
[23] = target: 456 kinases (of these 395 non-mutant kinases) (Homo sapiens, UniProt P11802); settings: 10 μM
Sequence of 456 kinases (of these 395 non-mutant kinases) (Homo sapiens, UniProt P11802) (P11802 2-303 limits assumed, change not shown): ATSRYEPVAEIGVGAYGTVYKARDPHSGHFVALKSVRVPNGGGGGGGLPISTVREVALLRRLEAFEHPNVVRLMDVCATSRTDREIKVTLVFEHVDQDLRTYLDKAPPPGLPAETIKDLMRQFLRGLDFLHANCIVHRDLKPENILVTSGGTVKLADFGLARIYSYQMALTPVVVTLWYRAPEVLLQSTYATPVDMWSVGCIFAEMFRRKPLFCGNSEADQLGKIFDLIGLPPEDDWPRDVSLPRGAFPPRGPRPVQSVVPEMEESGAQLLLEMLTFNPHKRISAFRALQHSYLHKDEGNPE

[24] = target: 456 kinases (of these 395 non-mutant kinases) (Homo sapiens, UniProt P80192); settings: MLK1; 10 μM
[25] = target: 456 kinases (of these 395 non-mutant kinases) (Homo sapiens, UniProt Q16288); settings: TRKC; 10 μM
[26] = target: 456 kinases (of these 395 non-mutant kinases) (Homo sapiens, UniProt Q96NX5); settings: CAMK1G; 10 μM
[27] = target: 456 kinases (of these 395 non-mutant kinases) (Homo sapiens, UniProt P36896); settings: ACVR1B; 10 μM
Sequence of 456 kinases (of these 395 non-mutant kinases) (Homo sapiens, UniProt P36896) (P36896 24-505 limits assumed, change not shown): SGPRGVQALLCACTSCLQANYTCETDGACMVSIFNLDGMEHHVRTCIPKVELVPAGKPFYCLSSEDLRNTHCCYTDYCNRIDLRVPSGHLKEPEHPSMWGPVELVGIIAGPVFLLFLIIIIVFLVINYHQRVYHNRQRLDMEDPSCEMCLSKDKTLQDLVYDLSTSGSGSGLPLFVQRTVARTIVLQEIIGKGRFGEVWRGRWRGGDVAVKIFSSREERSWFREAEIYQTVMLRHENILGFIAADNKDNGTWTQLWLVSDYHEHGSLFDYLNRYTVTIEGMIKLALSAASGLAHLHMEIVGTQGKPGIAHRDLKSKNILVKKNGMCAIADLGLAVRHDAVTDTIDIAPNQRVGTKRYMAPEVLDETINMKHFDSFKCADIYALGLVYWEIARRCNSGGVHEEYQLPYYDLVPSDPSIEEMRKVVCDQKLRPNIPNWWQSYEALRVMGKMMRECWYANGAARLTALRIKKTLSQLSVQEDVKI

[28] = target: 456 kinases (of these 395 non-mutant kinases) (Homo sapiens, UniProt Q8NFD2); settings: ANKK1; 10 μM
[29] = target: 456 kinases (of these 395 non-mutant kinases) (Homo sapiens, UniProt P32298); settings: GRK4; 10 μM
[30] = target: 456 kinases (of these 395 non-mutant kinases) (Homo sapiens, UniProt P16234); settings: PDGFRA; 10 μM

## CCc1ccccc1NC(=O)c1c(C)nsc1Nc1cnc2cc(F)ccc2n1 [Example 20, N-(2-Ethylphenyl)-5-[(6-fluoroquinoxalin-2-yl)amino]-3-methyl-1,2-thiazole-4-carboxamide]
[1]
  % Ctrl @ 10 μM: 100 % Ctrl
[2]; EGFR(L747-E749del, A750P)
  % Ctrl @ 10 μM: 94 % Ctrl
[2]; EGFR(L747-S752del, P753S)
  % Ctrl @ 10 μM: 100 % Ctrl
[2]; EGFR(L747-T751del,Sins)
  % Ctrl @ 10 μM: 100 % Ctrl
[2]; FLT3(ITD)
  % Ctrl @ 10 μM: 67 % Ctrl
[3]
  % Ctrl @ 10 μM: 100 % Ctrl
[4]
  % Ctrl @ 10 μM: 100 % Ctrl
[5]
  % Ctrl @ 10 μM: 100 % Ctrl
[6]
  % Ctrl @ 10 μM: 100 % Ctrl
[7]; RSK2(Kin.Dom.1-N-terminal)
  % Ctrl @ 10 μM: 100 % Ctrl
[7]; RSK2(Kin.Dom.2-C-terminal)
  % Ctrl @ 10 μM: 100 % Ctrl
[8]; RSK3(Kin.Dom.1-N-terminal)
  % Ctrl @ 10 μM: 72 % Ctrl
[8]; RSK3(Kin.Dom.2-C-terminal)
  % Ctrl @ 10 μM: 79 % Ctrl
[9]
  % Ctrl @ 10 μM: 86 % Ctrl
[10]
  % Ctrl @ 10 μM: 93 % Ctrl
[11]
  % Ctrl @ 10 μM: 61 % Ctrl
[12]
  % Ctrl @ 10 μM: 97 % Ctrl
[13]
  % Ctrl @ 10 μM: 100 % Ctrl
[14]
  % Ctrl @ 10 μM: 100 % Ctrl
[15]
  % Ctrl @ 10 μM: 100 % Ctrl
[16]
  % Ctrl @ 10 μM: 73 % Ctrl
[17]
  % Ctrl @ 10 μM: 96 % Ctrl
[18]; TYK2(JH1domain-catalytic)
  % Ctrl @ 10 μM: 100 % Ctrl
[18]; TYK2(JH2domain-pseudokinase)
  % Ctrl @ 10 μM: 100 % Ctrl
[19]
  % Ctrl @ 10 μM: 100 % Ctrl
[20]
  % Ctrl @ 10 μM: 88 % Ctrl
[21]
  % Ctrl @ 10 μM: 74 % Ctrl
[22]
  % Ctrl @ 10 μM: 95 % Ctrl
[23]; CDK4-cyclinD1
  % Ctrl @ 10 μM: 85 % Ctrl
[23]; CDK4-cyclinD3
  % Ctrl @ 10 μM: 93 % Ctrl
[24]
  % Ctrl @ 10 μM: 100 % Ctrl
[25]
  % Ctrl @ 10 μM: 93 % Ctrl
[26]
  % Ctrl @ 10 μM: 86 % Ctrl
[27]
  % Ctrl @ 10 μM: 100 % Ctrl
[28]
  % Ctrl @ 10 μM: 100 % Ctrl
[29]
  % Ctrl @ 10 μM: 77 % Ctrl
[30]
  % Ctrl @ 10 μM: 100 % Ctrl
